Results: US20090226398A1, “ANTI-VIRAL COMPOUNDS, COMPOSITIONS, AND METHODS OF USE” (Genelabs Technologies, Inc., priority 2008, published 2009)

System: HCV replication
Experiment: Replicon Assay (Huh-lucubineo-ET cells, luciferase readout)
Type: cell-based
Conditions: Hepatitis C virus; ET (Huh-lucubineo-ET) HCV replicon cell line; luciferase activity 48-72 hours after compound addition; 6 dilutions
Description: A cell line, ET (Huh-lucubineo-ET) was used for screening of compounds of the present invention for inhibition of HCV replication. The ET cell line was stably transfected with RNA transcripts harboring a I389luc-ubi-neo/NS3-3′/ET; replicon with firefly luciferase-ubiquitin-neomycin phosphotransferase fusion protein and EMCV-IRES driven NS3-5B polyprotein containing the cell culture adaptive mutations (E1202G; T1280I; K1846T) (Krieger at al, 2001 and unpublished). The ET cells were grown in DMEM, supplemented with 10% fetal calf serum, 2 mM Glutamine, Penicillin (100 IU/mL)/Streptomycin (100 μg/mL), 1× nonessential amino acids, and 250 μg/mL G418 (“Geneticin”). They were all available through Life Technologies (Bethesda, Md.). The cells were plated at 0.5−1.0×10^4 cells/well in the 96 well plates and incubated for 24 hrs before adding the test compounds. The compounds were then added to the cells to achieve a final concentration of 5 or 50 μM. Luciferase activity was measured 48-72 hours later by adding a lysis buffer and the substrate (Catalog number Glo-lysis buffer E2661 and Bright-Glo luciferase system E2620 Promega, Madison, Wis.). Cells should not be too confluent during the assay. Percent inhibition of replication was plotted relative to no compound control. For EC50 (effective concentration at which 50% of the maximum inhibition is observed) determinations, 6 dilutions of each compound were used. Compounds were typically diluted 3 fold to span a concentration range of 250 fold. EC50 and similarly TC50 values were calculated by fitting % inhibition at each concentration to the following equation:
% inhibition=100%/[(EC50/[I])^b+1]
where b is Hill's coefficient.

| SMILES | EC50 |
| --- | --- |
| Fc1cccc(-c2nc3cnn(Cc4ccc(-c5ccc(C(F)(F)F)cc5)cn4)cc-3n2)c1F [Compound 246, 2-(2,3-Difluoro-phenyl)-5-[5-(4-trifluoromethyl-phenyl)-pyridin-2-ylmethyl]-5H-imidazo[4,5-d]pyridazine] | ≥ 50000 nM |
| COc1ccc(-c2ccc(Cn3cc4nc(-c5cccc(F)c5F)nc-4cn3)c(C(=O)O)c2)c(C(F)(F)F)c1 [Compound 342, 4-[2-(2,3-Difluoro-phenyl)-imidazo[4,5-d]pyridazin-5-ylmethyl]-4′-methoxy-2′-trifluoromethyl-biphenyl-3-carboxylic acid] | ≥ 50000 nM |
| Cc1ccc(-c2ccc(C(F)(F)F)cc2C(F)(F)F)c(Cn2cc3nc(-c4cccc(F)c4F)nc-3cn2)n1 [Compound 336, 5-[3-(2,4-Bis-trifluoromethyl-phenyl)-6-methyl-pyridin-2-ylmethyl]-2-(2,3-difluoro-phenyl)-5H-imidazo[4,5-d]pyridazine] | ≥ 50000 nM |
| Fc1cccc(-c2nc3cnn(Cc4cccc5ccccc45)cc-3n2)c1F [Compound 292, 2-(2,3-Difluoro-phenyl)-5-naphthalen-1-ylmethyl-5H-imidazo[4,5-d]pyridazine] | ≥ 50000 nM |
| Fc1cccc(-c2nc3cnn(Cc4ccc(Oc5ccc(C(F)(F)F)cc5C(F)(F)F)cc4)cc-3n2)c1F [Compound 343, 5-[4-(2,4-Bis-trifluoromethyl-phenoxy)-benzyl]-2-(2,3-difluoro-phenyl)-5H-imidazo[4,5-d]pyridazine] | 26900 nM |
| FCCCOc1ccc(-c2ccc(Cn3cc4nc(-c5cccc(F)c5F)nc-4cn3)nn2)c(C(F)(F)F)c1 [Compound 351, 2-(2,3-Difluoro-phenyl)-5-{6-[4-(3-fluoro-propoxy)-2-trifluoromethyl-phenyl]-pyridazin-3-ylmethyl}-5H-imidazo[4,5-d]pyridazine] | 25 nM |
| COc1ccc(-c2ccc(Cn3cc4nc(-c5cccc(F)c5F)nc-4cn3)cc2)c(C(F)(F)F)c1 [Compound 241, 2-(2,3-Difluoro-phenyl)-5-(4′-methoxy-2′-trifluoromethyl-biphenyl-4-ylmethyl)-5H-imidazo[4,5-d]pyridazine] | 21 nM |
| CC(C)Cc1ccc(-c2ccc(Cn3cc4nc(-c5cccc(F)c5F)nc-4cn3)nn2)c(C(F)(F)F)c1 [Compound 332, 2-(2,3-Difluoro-phenyl)-5-[6-(4-isobutyl-2-trifluoromethyl-phenyl)-pyridazin-3-ylmethyl]-5H-imidazo[4,5-d]pyridazine] | 19 nM |
| COC(=O)c1cc(Cn2cc3nc(-c4cccc(F)c4F)nc-3cn2)ccc1-c1ccc(OC)cc1C(F)(F)F [Compound 288, 4-[2-(2,3-Difluoro-phenyl)-imidazo[4,5-d]pyridazin-5-ylmethyl]-4′-methoxy-2′-trifluoromethyl-biphenyl-2-carboxylic acid methyl ester] | 200 nM |
| O=[N+]([O-])c1cc(Cn2cc3nc(-c4cccc(F)c4F)nc-3cn2)ccc1Br [Compound 311, 5-(4-Bromo-3-nitro-benzyl)-2-(2,3-difluoro-phenyl)-5H-imidazo[4,5-d]pyridazine] | 6540 nM |
| Fc1cccc(-c2nc3cnn(Cc4ccc(-c5ccccc5C(F)(F)F)nc4)cc-3n2)c1F [Compound 250, 2-(2,3-Difluoro-phenyl)-5-[6-(2-trifluoromethyl-phenyl)-pyridin-3-ylmethyl]-5H-imidazo[4,5-d]pyridazine] | ≥ 50000 nM |
| N#CCOc1ccc(-c2ccc(Cn3cc4nc(-c5cccc(F)c5F)nc-4cn3)nn2)c(C(F)(F)F)c1 [Compound 325, (4-{6-[2-(2,3-Difluoro-phenyl)-imidazo[4,5-d]pyridazin-5-ylmethyl]-pyridazin-3-yl}-3-trifluoromethyl-phenoxy)-acetonitrile] | 107 nM |
| CCCOc1ccc(-c2ccc(Cn3cc4nc(-c5cccc(F)c5F)nc-4cn3)cn2)c(C)c1 [Compound 234, 2-(2,3-Difluoro-phenyl)-5-[6-(2-methyl-4-propoxy-phenyl)-pyridin-3-ylmethyl]-5H-imidazo[4,5-d]pyridazine] | 1210 nM |
| CC(C)(C)c1ccc(-c2ccc(Cn3cc4nc(-c5cccc(F)c5F)nc-4cn3)nn2)cc1 [Compound 215, 5-[6-(4-tert-Butyl-phenyl)-pyridazin-3-ylmethyl]-2-(2,3-difluoro-phenyl)-5H-imidazo[4,5-d]pyridazine] | 11600 nM |
| CC(c1ccc(-c2ccc(C(F)(F)F)cc2C(F)(F)F)cn1)n1cc2nc(-c3cccc(F)c3F)nc-2cn1 (stereo not drawn) [Compound 305, 5-{1-[5-(2,4-Bis-trifluoromethyl-phenyl)-pyridin-2-yl]-ethyl}-2-(2,3-difluoro-phenyl)-5H-imidazo[4,5-d]pyridazine] | 278 nM |
| Fc1cccc(-c2nc3cnn(Cc4ccc(-c5ccc(OC(F)(F)F)cc5)nc4)cc-3n2)c1F [Compound 249, 2-(2,3-Difluoro-phenyl)-5-[6-(4-trifluoromethoxy-phenyl)-pyridin-3-ylmethyl]-5H-imidazo[4,5-d]pyridazine] | ≥ 50000 nM |
| Fc1cccc(-c2ccc(Cn3cc4nc(-c5cccc(F)c5F)nc-4cn3)nn2)c1 [Compound 222, 2-(2,3-Difluoro-phenyl)-5-[6-(3-fluoro-phenyl)-pyridazin-3-ylmethyl]-5H-imidazo[4,5-d]pyridazine] | ≥ 50000 nM |
| CCCCOc1ccc(-c2ccc(Cn3cc4nc(-c5cccc(F)c5F)nc-4cn3)nn2)cc1 [Compound 223, 5-[6-(4-Butoxy-phenyl)-pyridazin-3-ylmethyl]-2-(2,3-difluoro-phenyl)-5H-imidazo[4,5-d]pyridazine] | 49000 nM |
| Fc1cccc(-c2nc3cnn(Cc4ccc(-c5ccc(OC(F)(F)F)cc5)cc4)cc-3n2)c1F [Compound 229, 2-(2,3-Difluoro-phenyl)-5-(4′-trifluoromethoxy-biphenyl-4-ylmethyl)-5H-imidazo[4,5-d]pyridazine] | 8380 nM |
| Fc1cccc(-c2nc3cnn(Cc4ccc(-c5ccc(C(F)(F)F)cc5C(F)(F)F)nn4)cc-3n2)c1F [Compound 104, 5-[6-(2,4-Bis-trifluoromethyl-phenyl)-pyridazin-3-ylmethyl]-2-(2,3-difluoro-phenyl)-5H-imidazo[4,5-d]pyridazine] | 60 nM |
| Fc1cccc(-c2nc3cnn(Cc4ccc(-c5ccc(OC(F)(F)F)cc5)nn4)cc-3n2)c1F [Compound 119, 2-(2,3-Difluoro-phenyl)-5-[6-(4-trifluoromethoxy-phenyl)-pyridazin-3-ylmethyl]-5H-imidazo[4,5-d]pyridazine] | 3100 nM |
| CCCOc1ccc(-c2ccc(Cn3cc4nc(-c5cccc(F)c5F)nc-4cn3)cn2)cc1 [Compound 245, 2-(2,3-Difluoro-phenyl)-5-[6-(4-propoxy-phenyl)-pyridin-3-ylmethyl]-5H-imidazo[4,5-d]pyridazine] | 8350 nM |
| Nc1ccc(-c2ccc(Cn3cc4nc(-c5cccc(F)c5F)nc-4cn3)cn2)c(C(F)(F)F)c1 [Compound 364, 4-{5-[2-(2,3-Difluoro-phenyl)-imidazo[4,5-d]pyridazin-5-ylmethyl]-pyridin-2-yl}-3-trifluoromethyl-phenylamine] | ≥ 50000 nM |
| COc1ccc(-c2ccc(Cn3cc4nc(-c5cccc(F)c5F)nc-4cn3)c(C)n2)c(C(F)(F)F)c1 [Compound 224, 2-(2,3-Difluoro-phenyl)-5-[6-(4-methoxy-2-trifluoromethyl-phenyl)-2-methyl-pyridin-3-ylmethyl]-5H-imidazo[4,5-d]pyridazine] | 281 nM |
| COc1cccc(-c2ccc(Cn3cc4nc(-c5cccc(F)c5F)nc-4cn3)nn2)c1 [Compound 218, 2-(2,3-Difluoro-phenyl)-5-[6-(3-methoxy-phenyl)-pyridazin-3-ylmethyl]-5H-imidazo[4,5-d]pyridazine] | ≥ 50000 nM |
| N#Cc1cc(C(F)(F)F)ccc1-c1ccc(Cn2cc3nc(-c4cccc(F)c4F)nc-3cn2)cn1 [Compound 340, 2-{5-[2-(2,3-Difluoro-phenyl)-imidazo[4,5-d]pyridazin-5-ylmethyl]-pyridin-2-yl}-5-trifluoromethyl-benzonitrile] | 95 nM |
| CCCOc1ccc(-c2ncc(Cn3cc4nc(-c5ccccc5F)nc-4cn3)cn2)c(C(F)(F)F)c1 [Compound 362, 2-(2-Fluoro-phenyl)-5-[2-(4-propoxy-2-trifluoromethyl-phenyl)-pyrimidin-5-ylmethyl]-5H-imidazo[4,5-d]pyridazine] | 19 nM |
| [O-][n+]1cc(Cn2cc3nc(-c4cccc(F)c4F)nc-3cn2)ccc1-c1ccc(C(F)(F)F)cc1C(F)(F)F [Compound 345, 5-[6-(2,4-Bis-trifluoromethyl-phenyl)-1-oxy-pyridin-3-ylmethyl]-2-(2,3-difluoro-phenyl)-5H-imidazo[4,5-d]pyridazine] | 80 nM |
| O=C(Nc1ccccc1)c1ccc(Cn2cc3nc(-c4cccc(F)c4F)nc-3cn2)cc1 [Compound 273, 4-[2-(2,3-Difluoro-phenyl)-imidazo[4,5-d]pyridazin-5-ylmethyl]-N-phenyl-benzamide] | ≥ 50000 nM |
| N#Cc1ccccc1-c1ccc(Cn2cc3nc(-c4cccc(F)c4F)nc-3cn2)cc1 [Compound 264, 4′-[2-(2,3-Difluoro-phenyl)-imidazo[4,5-d]pyridazin-5-ylmethyl]-biphenyl-2-carbonitrile] | 892 nM |
